Read-outs that look alike come from different tables or passages of the source.

The nature of data set [1]: Acute toxicity assessment in ICR mice, single i.v. dose. Particulars: both sexes, ICR, mouse, in vivo, iv, Bliss method. It is filed as in vivo. Here is the method: (§1) The acute toxicity of acacetin prodrug was assessed in ICR mice (weighing 18~22 g) as described in Supplemental Materials, and the LD50 was calculated by the Bliss method. […]
(§2) Acute toxicity assessment of acacetin prodrug
(§3) The acute toxicity of acacetin prodrug was assessed in ICR mice (weighing 18~22 g) provided by the Laboratory Animal Center of Hong Kong University (Hong Kong, China) and maintained under controlled temperature conditions (23 °C), with a constant 12 h light-dark cycle and free access to food and water. Sixty ICR mice (male, 30; female, 30) were stratified by weight and randomly assigned to six groups: (n = 10 in each group, 5 male and 5 female).
(§4) Acacetin prodrug dissolved in 5% glucose was intravenously administered at 900, 810, 765, 720, 630 and 540 mg/kg through tail vein, respectively. The animals were closely observed for symptoms and mortality in 24 h. All of the surviving animals were euthanized at the end of the study, and their vital organs were individually observed for gross pathology by necropsy, and the LD50 was calculated by the Bliss method.11, 12

The test system of a further data set is ICR mice. Described as above. It is filed as in vivo. How it is done:
as §1, §2, §3, §4

Data set [2] in a line: Ex vivo bioconversion of acacetin prodrug in rat plasma. The data set is classed as in vitro ADME. Particulars: 37 °C, n = 3. How it is done: The ex vivo bioconversion of acacetin prodrug was determined in rat plasma or rat hepatic microsome that contains high content alkaline phosphatase, as described previously[30] and in Supplemental Materials. The in vivo bioconversion of acacetin prodrug was determined in beagle dogs as described in Supplemental Materials. […]
Bioconversion of acacetin prodrug in rat plasma and hepatic microsomes
Hydrolysis of acacetin prodrug was initially determined in rat plasma. The 100 µL rat plasma samples containing 5 µg/mL prodrug was prepared at 4 °C and then incubated in a water bath at 37 °C and continuously shaken at 60 rpm. The plasma samples were collected at 0, 5, 15, 30, 60, 120, 180, 240 and 360 min, respectively. The reaction was terminated by adding 1 mL cold methanol containing the IS solution (50 ng/mL pentamethylquercetin). […]
The reaction mixture […]
was prepared in 50 mM Tris-HCl buffer (pH = 7.4) with 1 mM NADPH (nicotinamide adenine dinucleotide phosphate) and 0.5 mg/mL (total protein) microsomes. Prodrug solutions were added to the microsomes reaction mixture with a final concentration of 5 µg/mL. The reaction solution was incubated in a water bath at 37℃ and shaken at 60 rpm for 1 h. The samples were collected at 0, 1, 2, 15, 30 and 60 min. […] After centrifugation at 12000 g for 30 min, the supernatant was immediately analyzed by HPLC. […]

On to `COc1ccc(-c2cc(=O)c3c(O)cc(OP(=O)([O-])[O-])cc3o2)cc1.[Na+].[Na+]` [acacetin prodrug, phosphate sodium salt of acacetin], for which the LD50 at 24 h in data set [1] (read-out: LD50 with 95% confidence level) is 685 to 760 mg/kg; in data set [1] (intravenous (tail vein), single dose, read-out: LD50), 722 mg/kg. In addition, in the data set with ICR mice (i.v. dose of 900 mg/kg), the mortality result is “all animals died”. Moreover, in the data set with ICR mice (i.v. dose of up to 540 mg/kg), the “survival within 24 h” value was “All animals survived”. Besides, the “adverse effects or signs of toxicity in the surviving animals” value in the data set on ICR mice (i.v., 24 h observation) is “No significant adverse effects or signs of toxicity”. Besides, the “necropsy of the surviving mice” value with ICR mice (i.v., end of study) is on record as “no gross pathological alteration”. In the data set with ICR mice (intravenous (tail vein), single dose, Bliss method), this molecule came in with an LD50 of 721 mg/kg. For the same molecule, the entries for the “prodrug converted into acacetin” value in data set [2] (60 min incubation) and in data set [2] (within 240 min incubation) were 50% and 100%, respectively.

For orientation: LD50 means the dose expected to kill half of the subjects tested.

These data come from article PMC4861903, “Synthesis of a highly water-soluble acacetin prodrug for treating experimental atrial fibrillation in beagle dogs” (Scientific Reports, 2016).
